Measured values taken from publication PMC6268909 (Molecules, 2012).
≈ marks a conversion by molar mass, not a printed value. Structures can show the parent of a compound that is named as a salt. Where two headings read alike, the source gives them in different places.

Tests used:
[1] = molecular target: T1, acetylcholinesterase (AChE) (Homo sapiens, UniProt P22303); test: biochemical
T1 construct: purchased Sigma-Aldrich (St. Louis, MO, USA)

[2] = tested on: Magnaporthe oryzae P131; test: microbe, parasite or virus in culture; assay type: cell-based; conditions: Pyricularia oryzae, read-out: IC50, antimicrobial activity, M. or.
[3] = tested on: Agrobacterium tumefaciens ATCC 11158; test: microbe, parasite or virus in culture; assay type: cell-based; conditions: ATCC11158, 24 h, read-out: IC50, antimicrobial activity, A. tum.
[4] = tested on: Alternaria alternata; set-up: method as in PMID 15787237; conditions: cited from earlier work
[5] = molecular target: acetycholinesterase (AChE); set-up: method as in PMID 15787237; conditions: previously reported; cited from earlier work
[6] = tested on: Xanthomonas vesicatoria ATCC 11633; test: microbe, parasite or virus in culture; assay type: cell-based; conditions: ATCC11633, 24 h, read-out: IC50, antimicrobial activity, X. ves.
[7] = tested on: Pseudomonas lachrymans ATCC 11921; test: microbe, parasite or virus in culture; assay type: cell-based; conditions: ATCC11921, 24 h, read-out: IC50, antimicrobial activity, P. lach.
[8] = tested on: Ralstonia solanacearum ATCC 11696; test: microbe, parasite or virus in culture; assay type: cell-based; conditions: ATCC11696, 24 h, read-out: IC50, antimicrobial activity, R. sol.
[9] = tested on: Bacillus subtilis ATCC 11562; test: microbe, parasite or virus in culture; assay type: cell-based; conditions: ATCC11562, 24 h, read-out: IC50, antimicrobial activity, B. sub.
[10] = tested on: Staphylococcus aureus; conditions: cited from earlier work
[11] = tested on: Bacillus megaterium; set-up: method as in earlier work; conditions: compound from endophytic fungus of Meliotus dentatus; cited from earlier work
[12] = tested on: methicillin-resistant S. aureus; conditions: cited from earlier work
[13] = tested on: C. sphaerospermum; set-up: method as in PMID 20158153; conditions: compound from endophytic Penicillium sp.; cited from earlier work
[14] = tested on: Microbotryum violacerum; set-up: method as in earlier work; conditions: compound from endophytic fungus of Meliotus dentatus; cited from earlier work
[15] = tested on: Cladosporium cladosporioides; set-up: method as in PMID 20158153; conditions: compound from endophytic Penicillium sp.; cited from earlier work
[16] = tested on: human colon carcinoma cells; conditions: cited from earlier work
[17] = tested on: various cultured mammalian cells; conditions: cited from earlier work

T1 sequence (P22303 32-614, species assumed): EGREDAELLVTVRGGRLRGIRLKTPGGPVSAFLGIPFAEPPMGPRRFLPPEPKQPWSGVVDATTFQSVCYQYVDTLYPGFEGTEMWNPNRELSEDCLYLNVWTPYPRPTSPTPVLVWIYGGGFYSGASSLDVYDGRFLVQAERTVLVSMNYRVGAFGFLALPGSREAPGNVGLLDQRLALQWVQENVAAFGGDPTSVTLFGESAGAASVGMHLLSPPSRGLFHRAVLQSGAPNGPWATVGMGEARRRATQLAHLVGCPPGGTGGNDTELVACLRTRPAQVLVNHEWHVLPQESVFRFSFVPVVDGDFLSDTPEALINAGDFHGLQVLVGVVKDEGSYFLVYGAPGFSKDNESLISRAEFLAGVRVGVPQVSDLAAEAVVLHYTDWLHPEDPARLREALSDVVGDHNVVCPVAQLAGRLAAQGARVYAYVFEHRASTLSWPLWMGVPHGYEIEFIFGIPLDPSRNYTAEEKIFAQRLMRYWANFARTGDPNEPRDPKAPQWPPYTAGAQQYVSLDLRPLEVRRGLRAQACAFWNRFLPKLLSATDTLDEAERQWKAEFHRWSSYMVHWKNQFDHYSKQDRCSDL

SMILES	IC50 [1] [µM]	IC50 ([2]; P131, 7 h at 25 °C) [µg/mL]	IC50 [3] [µg/mL]	MIC [4] [µg/mL]	IC50, acetycholinesterase (AChE) inhibitory activity [5] [µg/mL]	IC50 [6] [µg/mL]	IC50 [7] [µg/mL]	IC50 [8] [µg/mL]	IC50 [9] [µg/mL]	IC50 ([2]; P131, 7 h) [µg/mL]	MIC [10] [µg/mL]	antibacterial activity [11]	MIC [12] [µg/mL]	antifungal activity at concentration [13] [µg/mL]	antifungal activity [14]	antifungal activity at concentration [15] [µg/mL]	mitochondrial apoptosis [16]	DNA strand breaks, micronuclei and gene mutations [17]
COC1=CC2(C)OC(=O)c3c(O)cc(OC)cc3C2=C(O)C1=O (centres unmarked) [Botrallin (4), 1,7-dihydroxy-3,9-dimethoxy-4a-methyl-6H-dibenzo[b,d]pyran-2,6 (4aH)-dione]	326	107 (≈ 337 µM)	87.5 (≈ 275 µM)	62.5 (≈ 196 µM)	6.1 (≈ 19.2 µM)	86.3 (≈ 271 µM)	92.2 (≈ 290 µM)	85.5 (≈ 269 µM)	98.5 (≈ 309 µM)	–	–	–	–	–	–	–	–	–
CC1OC(=O)c2c(O)cccc2C1O (centres unmarked) [4,8-dihydroxy-3-methylbenzopyran-1-one]	598	–	18.2 (≈ 93.8 µM)	–	–	17.8 (≈ 91.7 µM)	16.2 (≈ 83.3 µM)	16.2 (≈ 83.6 µM)	19.2 (≈ 99 µM)	113 (≈ 584 µM)	8 (≈ 41.2 µM)	strong antibacterial activity	8 (≈ 41.2 µM)	10.0	antifungal activity	5.00	–	–
COC(=O)Nc1nc2ccccc2[nH]1 [carbendazim, reference compound]	–	–	–	–	–	–	–	–	–	13 (≈ 68 µM)	–	–	–	–	–	–	–	–
[H]/N=C(/N)N[C@H]1[C@H](O)[C@@H](O)[C@H](O[C@@H]2O[C@@H](C)[C@](O)(C=O)[C@H]2O[C@@H]2O[C@@H](CO)[C@H](O)[C@@H](O)[C@@H]2NC)[C@@H](N/C(N)=N\[H])[C@@H]1O [streptomycin sulfate, reference compound]	–	–	6.34	–	–	6.79	8.34	7.19	8.35	–	–	–	–	–	–	–	–	–
COc1cc(O)c2c(=O)oc3cc(O)cc(C)c3c2c1 [Alternariol 9-methyl ether (3), 3,7-dihydroxy-9-methoxy-1-methyl-6H-dibenzo[b,d]pyran-6-one]	498	123 (≈ 452 µM)	28.8 (≈ 106 µM)	–	–	30.1 (≈ 110 µM)	27.1 (≈ 99.5 µM)	29.2 (≈ 107 µM)	34.3 (≈ 126 µM)	–	–	–	–	–	–	–	induce mitochondrial apoptosis	induce DNA strand breaks, micronuclei and gene mutations
COc1cc(O)c2c(=O)oc3cc(O)c(Cl)c(C)c3c2c1 [Palmariol B (1), 2-chloro-3,7-dihydroxy-9-methoxy-1-methyl-6H-dibenzo[b,d]pyran-6-one]	376	119 (≈ 387 µM)	19.4 (≈ 63.1 µM)	–	–	28.1 (≈ 91.7 µM)	16.7 (≈ 54.6 µM)	17.5 (≈ 57.1 µM)	27.7 (≈ 90.2 µM)	–	–	–	–	–	–	–	–	–
